Data taken from BigSolDB 2.1.

CC(C)(Oc1ccc(C2CC2(Cl)Cl)cc1)C(=O)O (stereo not given)
solubility (mole fraction)
Settings	278.15 K	283.15 K	288.15 K	293.15 K	298.15 K	303.15 K	308.15 K	313.15 K	318.15 K	323.15 K
in DMF	0.218	0.236	0.257	0.277	0.296	0.319	0.342	0.365	0.385	0.407
in ethanol	0.156	0.171	0.187	0.203	0.219	0.239	0.259	0.277	0.294	0.312
in ethylene glycol	0.0348	0.0395	0.044	0.0486	0.053	0.0592	0.0652	0.0711	0.077	0.0823
in n-propanol	0.0758	0.0854	0.0948	0.104	0.113	0.125	0.137	0.148	0.159	0.169
in water	5.95e-07	7.63e-07	9.11e-07	1.1e-06	1.31e-06	1.54e-06	1.77e-06	2.05e-06	2.33e-06	2.65e-06
